Experimental data reported in PubChem BioAssay AID212 (DTP/NCI, 2004).
Several values for one entry are separate records, joined by “and”; a condition that tells them apart may be missing. Identical values can stand only once. Records with an inconclusive call do not appear. Where a SMILES comes first, the peptide text is derived from it. Bridges are numbered along the chain shown (N, C = ends).

System: BDF1 mice, colon carcinoma 38 sc, T/C %
Assay: NCI In Vivo Anticancer Drug Screen. Data for tumor model Colon Carcinoma 38 (subcutaneous) in B6D2F1 (BDF1) mice
Details: endpoint: median tumor weight (est.), higher = larger tumour
Outline: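 Mice with transplanted tumors are treated with compound or vehicle. Survival or tumor size is then measured in both groups. The ratio of treated to control gives the reported figure.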

[1] = dose: 400.0 mg/kg/injection, schedule: Q07DX002 (ip), vehicle: saline
[2] = dose: 200.0 mg/kg/injection, schedule: Q07DX002 (ip), vehicle: saline with Tween-80
[3] = dose: 25.0 mg/kg/injection, schedule: Q07DX002 (ip), vehicle: saline with Tween-80
[4] = dose: 200.0 mg/kg/injection, schedule: Q07DX002 (ip), vehicle: Klucel (hydroxypropylcellulose) (HPC)
[5] = dose: 400.0 mg/kg/injection, schedule: Q07DX002 (ip), vehicle: Klucel (hydroxypropylcellulose) (HPC)
[6] = dose: 800.0 mg/kg/injection, schedule: Q07DX002 (ip), vehicle: Klucel (hydroxypropylcellulose) (HPC)

SMILES: CCC(C)C1NC(=O)C(CC(C)C)NC(=O)C(C(C)C)NC(=O)C2CSSCC(NC1=O)C(=O)N2 (centres undefined) (cyclo(CCVLI); disulfide 1-2; configuration not given here)
- T/C (dose: 128.12 micrograms/kg/injection, schedule: Q07DX002 (ip), vehicle: Klucel (hydroxypropylcellulose) (HPC)): 160 % of control
- T/C (dose: 256.25 micrograms/kg/injection, schedule: Q07DX002 (ip), vehicle: Klucel (hydroxypropylcellulose) (HPC)): 118 % of control

SMILES: O=c1[nH]c(=O)c2nc(-c3cccnc3)cnc2[nH]1
- T/C (dose: 12.5 mg/kg/injection, schedule: Q07DX002 (ip), vehicle: saline): 116 % of control
- T/C (dose: 25.0 mg/kg/injection, schedule: Q07DX002 (ip), vehicle: saline): 78 % of control and 81 % of control
- T/C (dose: 200.0 mg/kg/injection, schedule: Q07DX002 (ip), vehicle: saline): 80 % of control and 103 % of control
- T/C [1]: 95 % of control and 97 % of control

SMILES: Cc1c(N)nc(C(CC(N)=O)NCC(N)C(N)=O)nc1C(=O)NC(C(=O)NC(C)C(O)C(C)C(=O)NC(C(=O)NCCc1nc(-c2nc(C(=O)NCCCNC(C)c3ccccc3)cs2)cs1)C(C)O)C(OC1OC(CO)C(O)C(O)C1OC1OC(CO)C(O)C(OC(N)=O)C1O)c1cnc[nH]1 (centres undefined)
- T/C (dose: 0.5 mg/kg/injection, schedule: Q07DX003 (ip), vehicle: saline): 75 % of control
- T/C (dose: 1.0 mg/kg/injection, schedule: Q07DX002 (ip), vehicle: saline): 66 % of control
- T/C (dose: 1.0 mg/kg/injection, schedule: Q07DX003 (ip), vehicle: saline): 90 % of control
- T/C (dose: 2.0 mg/kg/injection, schedule: Q07DX002 (ip), vehicle: saline): 75 % of control
- T/C (dose: 2.0 mg/kg/injection, schedule: Q07DX003 (ip), vehicle: saline): 102 % of control
- T/C (dose: 4.0 mg/kg/injection, schedule: Q07DX003 (ip), vehicle: saline): 62 % of control
- T/C (dose: 8.0 mg/kg/injection, schedule: Q07DX003 (ip), vehicle: saline): 83 % of control
- T/C (dose: 16.0 mg/kg/injection, schedule: Q07DX003 (ip), vehicle: saline): 92 % of control
- T/C (dose: 32.0 mg/kg/injection, schedule: Q07DX002 (ip), vehicle: saline): 29 % of control

SMILES: Nc1nc(-c2ccccc2)c(Br)c(=O)[nH]1
- T/C [2]: 105 % of control
- T/C (dose: 1600.0 mg/kg/injection, schedule: Q07DX002 (ip), vehicle: saline with Tween-80): 36 % of control and 43 % of control

SMILES: O=C1c2cccc3cc([N+](=O)[O-])cc(c23)C(=O)N1CCN1CCCC1
- T/C (dose: 3.13 mg/kg/injection, schedule: Q07DX002 (ip), vehicle: saline with Tween-80): 107 % of control
- T/C (dose: 6.25 mg/kg/injection, schedule: Q07DX002 (ip), vehicle: saline with Tween-80): 71 % of control
- T/C (dose: 12.5 mg/kg/injection, schedule: Q07DX002 (ip), vehicle: saline with Tween-80): 84 % of control
- T/C [3]: 67 % of control

SMILES: Nc1n[nH]c(N)n1
- T/C (dose: 100.0 mg/kg/injection, schedule: Q07DX002 (ip), vehicle: saline): 84 % of control and 90 % of control and 105 % of control
- T/C (dose: 100.0 mg/kg/injection, schedule: Q07DX003 (ip), vehicle: saline with Tween-80): 56 % of control
- T/C [1]: 65 % of control and 69 % of control and 71 % of control
- T/C (dose: 400.0 mg/kg/injection, schedule: Q07DX003 (ip), vehicle: saline with Tween-80): 110 % of control
- T/C (dose: 800.0 mg/kg/injection, schedule: Q07DX003 (ip), vehicle: saline with Tween-80): 102 % of control
- T/C (dose: 1600.0 mg/kg/injection, schedule: Q07DX002 (ip), vehicle: saline): 71 % of control and 73 % of control and 81 % of control

SMILES: C[C@]12CCC(=O)C=C1CC[C@@H]1[C@@H]2[C@@H](O)C[C@@]2(C)[C@H]1CC[C@]2(O)C(=O)CO
- T/C (dose: 40.0 mg/kg/injection, schedule: Q07DX003 (ip), vehicle: Klucel (hydroxypropylcellulose) (HPC)): 73 % of control
- T/C (dose: 80.0 mg/kg/injection, schedule: Q07DX003 (ip), vehicle: Klucel (hydroxypropylcellulose) (HPC)): 76 % of control
- T/C (dose: 160.0 mg/kg/injection, schedule: Q07DX003 (ip), vehicle: Klucel (hydroxypropylcellulose) (HPC)): 123 % of control and 104 % of control
- T/C [4]: 63 % of control
- T/C (dose: 320.0 mg/kg/injection, schedule: Q07DX003 (ip), vehicle: Klucel (hydroxypropylcellulose) (HPC)): 118 % of control
- T/C [5]: 74 % of control
- T/C (dose: 640.0 mg/kg/injection, schedule: Q07DX003 (ip), vehicle: Klucel (hydroxypropylcellulose) (HPC)): 79 % of control and 103 % of control
- T/C [6]: 93 % of control
- T/C (dose: 800.0 mg/kg/injection, schedule: Q07DX003 (ip), vehicle: Klucel (hydroxypropylcellulose) (HPC)): 57 % of control
- T/C (dose: 1200.0 mg/kg/injection, schedule: Q07DX002 (ip), vehicle: Klucel (hydroxypropylcellulose) (HPC)): 70 % of control

SMILES: C(C#CCN1CCOCC1)#CCN1CCOCC1
- T/C (dose: 25.0 mg/kg/injection, schedule: Q07DX002 (ip), vehicle: Klucel (hydroxypropylcellulose) (HPC)): 80 % of control
- T/C [3]: 166 % of control
- T/C (dose: 50.0 mg/kg/injection, schedule: Q07DX002 (ip), vehicle: Klucel (hydroxypropylcellulose) (HPC)): 60 % of control
- T/C (dose: 50.0 mg/kg/injection, schedule: Q07DX002 (ip), vehicle: saline with Tween-80): 213 % of control
- T/C (dose: 100.0 mg/kg/injection, schedule: Q07DX002 (ip), vehicle: Klucel (hydroxypropylcellulose) (HPC)): 65 % of control
- T/C (dose: 100.0 mg/kg/injection, schedule: Q07DX002 (ip), vehicle: saline with Tween-80): 177 % of control
- T/C [4]: 49 % of control
- T/C [2]: 296 % of control
- T/C [5]: 94 % of control
- T/C (dose: 400.0 mg/kg/injection, schedule: Q07DX002 (ip), vehicle: saline with Tween-80): 285 % of control
- T/C [6]: 60 % of control
- T/C (dose: 800.0 mg/kg/injection, schedule: Q07DX002 (ip), vehicle: saline with Tween-80): 262 % of control
